Experiment [1] concerns the target IRAK4 (Homo sapiens (Human), UniProt Q9NWZ3). Kind of experiment: IRAK4 Inhibition Assay. It counts as biochemical. The conditions noted are these: ATP 500 μM; IRAK4 0.6 nM; 60 min room temperature; Caliper LABCHIP 3000.
For experiment [2], the system named is Human whole blood. Kind of experiment: IRAK4 Whole Blood Assay (IL-6 levels after stimulation with TLR2 agonist lipoteichoic acid). It counts as cell-based. Particulars: 10 μg/mL lipoteichoic acid, 5 hours. The gist of the method:
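ACD-A anticoagulated human whole blood preincubated with compound 60 min at 37 °C, 5% CO2, then stimulated 5 h with lipoteichoic acid at 10 μg/mL final. IL-6 in supernatants measured by flow cytometry bead assay.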

Sequence of IRAK4 (Q9NWZ3 whole entry, species assumed): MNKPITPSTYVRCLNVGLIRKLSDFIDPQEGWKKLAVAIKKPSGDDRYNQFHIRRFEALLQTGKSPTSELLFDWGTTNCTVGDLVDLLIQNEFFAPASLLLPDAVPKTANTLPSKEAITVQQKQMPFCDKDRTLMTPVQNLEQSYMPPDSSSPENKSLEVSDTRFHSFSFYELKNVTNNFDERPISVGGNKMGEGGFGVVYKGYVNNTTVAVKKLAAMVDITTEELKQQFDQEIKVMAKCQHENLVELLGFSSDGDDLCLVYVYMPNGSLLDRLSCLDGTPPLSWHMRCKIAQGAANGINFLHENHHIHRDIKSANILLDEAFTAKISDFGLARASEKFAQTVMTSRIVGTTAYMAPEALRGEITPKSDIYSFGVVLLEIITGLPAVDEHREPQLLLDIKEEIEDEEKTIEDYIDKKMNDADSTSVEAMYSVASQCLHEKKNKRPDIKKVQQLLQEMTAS

Take `CC(C)Nc1c(C(=O)NCCCc2ccncc2)cnc2ccc(-c3cn[nH]c3)cc12` [Example 114, 4-(isopropylamino)-6-(1H-pyrazol-4-yl)-N-(3-(pyridin-4-yl)propyl)quinoline-3-carboxamide]: in experiment [1], the IC50 is 9.1 nM. In experiment [2], this compound came in with an EC50 of 1740 nM.

For the compound `CC(C)Nc1c(C(=O)NCCC(F)(F)F)cnc2ccc(-c3cn[nH]c3)nc12` [Example 142, 4-(isopropylamino)-6-(1H-pyrazol-4-yl)-N-(3,3,3-trifluoropropyl)-1,5-naphthyridine-3-carboxamide], the IC50 in experiment [1] was 6.4 nM. Further, in experiment [2], the concentration giving a half-maximal response (EC50) came to 138 nM.

In the case of `CC(C)Nc1c(C(=O)NC[C@@H](F)C(C)(C)O)nnc2ccc(-c3cn[nH]c3)cc12` [Example 158, (R)—N-(2-fluoro-3-hydroxy-3-methylbutyl)-4-(isopropylamino)-6-(1H-pyrazol-4-yl) cinnoline-3-carboxamide], the half-inhibitory concentration (IC50) in experiment [1] came out at 1.6 nM. This compound also had an EC50 in experiment [2] of 802 nM.

On to `CC(C)Nc1c(C(=O)N[C@H]2CC[C@H](n3ccnn3)CC2)cnc2ccc(-c3cn[nH]c3)cc12` [Example 101, N-((1r,4r)-4-(1H-1,2,3-triazol-1-yl)cyclohexyl)-4-(isopropylamino)-6-(1H-pyrazol-4-yl)quinoline-3-carboxamide], for which the IC50 in experiment [1] is 4.1 nM. In experiment [2], this compound gave an EC50 of 447 nM.

For the compound `CC(C)Nc1c(C(=O)NCCC2(O)CC(F)(F)C2)cnc2ccc(-c3cn[nH]c3)cc12` [Example 42, N-(2-(3,3-difluoro-1-hydroxycyclobutyl)ethyl)-4-(isopropylamino)-6-(1H-pyrazol-4-yl)quinoline-3-carboxamide], in experiment [1], the IC50 is 2.5 nM. The compound also had an EC50 in experiment [2] of 396 nM.

As for `CCOC(=O)N1CCC(NC(=O)c2cnc3ccc(-c4cn[nH]c4)cc3c2NC(C)C)CC1` [Example 80, ethyl 4-(4-(isopropylamino)-6-(1H-pyrazol-4-yl)quinoline-3-carboxamido)piperidine-1-carboxylate], the half-maximal inhibitory concentration (IC50) in experiment [1] came out at 13 nM. This compound came in with a concentration giving a half-maximal response (EC50) in experiment [2] of 1320 nM.

Regarding `CC(C)Nc1c(C(=O)NCCN2CCOCC2)cnc2ccc(-c3cn[nH]c3)nc12` [Example 144, 4-(isopropylamino)-N-(2-morpholinoethyl)-6-(1H-pyrazol-4-yl)-1,5-naphthyridine-3-carboxamide], the IC50 in experiment [1] was found to be 4 nM. Also, the midpoint of the response in experiment [2], the EC50, lay at 285 nM.

With `CC(C)Nc1c(-c2cn(C3CCN(C)C3=O)nn2)cnc2ccc(-c3cn[nH]c3)cc12` (stereo not shown) [Example 136, 3-(4-(4-(isopropylamino)-6-(1H-pyrazol-4-yl)quinolin-3-yl)-1H-1,2,3-triazol-1-yl)-1-methylpyrrolidin-2-one], the IC50 in experiment [1] is 11.4 nM. In addition, in experiment [2], the 50% effective concentration (EC50) was determined as 5090 nM.

By IC50 is commonly meant the midpoint of a concentration-inhibition curve. The term EC50 denotes the concentration that produces a half-maximal response. Read a low EC50 as an effect from little substance.

The record behind these values is patent publication US12492186B2, “Bicyclic heterocyclic compounds useful as IRAK4 inhibitors” (BRISTOL-MYERS SQUIBB COMPANY, priority 2019, dated 2025).
